Measurements: patent US9527857B2, “HSPC-sparing treatments for RB-positive abnormal cellular proliferation” (G1 Therapeutics, Inc., priority 2013, dated 2016)

Columns and labels:
[1] = test system: ZR-75-1 (breast ductal carcinoma, Rb-positive); test: Cellular proliferation assay (CellTiter-Glo), ZR-75-1; assay type: cell-based
Procedure: (§1) Cellular proliferation assays were conducted using the following cancer cell lines: MCF7 (breast adenocarcinoma—Rb-positive), ZR-75-1 (breast ductal carcinoma—Rb-positive), H69 (human small cell lung cancer—Rb-negative) cells, or A2058 (human metastatic melanoma cells—Rb-negative). These cells were seeded in Costar (Tewksbury, Mass.) […] 96 well tissue culture treated white walled/clear bottom plates. Cells were treated with the compounds of Table 1 as nine point dose response dilution series from 10 uM to 1 nM. Cells were exposed to compounds and then cell viability was determined after either four (H69) or six (MCF7, ZR75-1, A2058) days as indicated using the CellTiter-Glo® luminescent cell viability assay (CTG; Promega, Madison, Wis., United States of America) following the manufacturer's recommendations. Plates were read on BioTek (Winooski, Vt.) Syngergy2 multi-mode plate reader. The Relative Light Units (RLU) were plotted as a result of variable molar concentration and data was analyzed using Graphpad (LaJolla, Calif.) Prism 5 statistical software to determine the EC50 for each compound.

[2] = test system: human renal proximal tubule epithelial cells (Rb-positive); test: Cellular wash-out experiment, renal proximal tubule epithelial cells; assay type: cell-based; conditions: 300 nM
Procedure: Alternatively, the same experiment was done using normal Renal Proximal Tubule Epithelial Cells (Rb-positive) obtained from American Type Culture Collection (ATCC, Manassas, Va.). Cells were grown in an incubator at 37° C. in a humidified atmosphere of 5% CO2 in Renal Epithelial Cell Basal Media (ATCC) supplemented with Renal Epithelial Cell Growth Kit (ATCC) in 37° C. humidified incubator.
(§2) Upon harvesting cells, samples were stained with propidium iodide staining solution and samples run on Dako Cyan Flow Cytometer. The fraction of cells in G0-G1 DNA cell cycle versus the fraction in S-phase DNA cell cycle was determined using FlowJo 7.2 0.2 analysis.

[3] = test system: HS68 cells (human fibroblast, Rb-positive); test: Cellular wash-out experiment, HS68 cells; assay type: cell-based; conditions: in vitro wash-out experiment
Procedure: […]. On day 3, one set of treated cell samples were harvested in triplicate (0 Hour sample). Remaining cells were washed two times in PBS-CMF and returned to culture media lacking test compound. Sets of samples were harvested in triplicate at 24, 40, and 48 hours.
as §2

[4] = test system: HSPCs (LKS+); conditions: single oral dose 150 mg/kg, mice; Roberts et al.; cited from earlier work
[5] = Schwartz et al. (2011); cited from earlier work
[6] = PD0332991 pharmacokinetics and HSPC arrest in humans; assay type: in vivo; conditions: single administration
Procedure: When calculated half-life was longer than the duration of the experiment, the half-life was expressed as >the longest incubation time. The calculated half-life is also listed in parentheses. […] The timely resumption of cellular proliferation is necessary for tissue repair, and therefore an overly long period of arrest is undesirable in healthy cells such as HSPCs. The characteristics of a CDK4/6 inhibitor that dictate its arresting duration are its pharmacokinetic (PK) and enzymatic half-lives. Once initiated, a G1-arrest in vivo will be maintained as long as circulating compound remains at an inhibitory level, and as long as the compound engages the enzyme. […] These observations may explain the severe granulocytopenia seen with PD0332991 in the clinic.

[7] = test system: myeloid progenitor cells (LKS-); conditions: single oral dose 150 mg/kg, mice; Roberts et al.; cited from earlier work
[8] = test system: MCF7 (breast adenocarcinoma, Rb-positive); test: Cellular proliferation assay (CellTiter-Glo), MCF7; assay type: cell-based
Procedure: The MCF7 cells were seeded in Costar (Tewksbury, Mass.) 3903 96 well tissue culture treated white walled/clear bottom plates. A nine point dose response dilution series from 10 uM to 1 nM was performed and cell viability was determined after six days of compound treatment as indicated using the CellTiter-Glo® luminescent cell viability assay (CTG; Promega, Madison, Wis., United States of America) following the manufacturer's recommendations. Plates were read on a BioTek (Winooski, Vt.) Syngergy2 multi-mode plate reader. The Relative Light Units (RLU) were plotted as a result of variable molar concentration and data was analyzed using Graphpad (LaJolla, Calif.) Prism 5 statistical software to determine the EC50 for each compound.
as §1

[9] = molecular target: CDK6/CycD3 (Homo sapiens (Human), UniProt Q00534); test: CDK6/CycD3 kinase assay; assay type: biochemical
CDK6/CycD3, sequence (Q00534 whole entry, species assumed): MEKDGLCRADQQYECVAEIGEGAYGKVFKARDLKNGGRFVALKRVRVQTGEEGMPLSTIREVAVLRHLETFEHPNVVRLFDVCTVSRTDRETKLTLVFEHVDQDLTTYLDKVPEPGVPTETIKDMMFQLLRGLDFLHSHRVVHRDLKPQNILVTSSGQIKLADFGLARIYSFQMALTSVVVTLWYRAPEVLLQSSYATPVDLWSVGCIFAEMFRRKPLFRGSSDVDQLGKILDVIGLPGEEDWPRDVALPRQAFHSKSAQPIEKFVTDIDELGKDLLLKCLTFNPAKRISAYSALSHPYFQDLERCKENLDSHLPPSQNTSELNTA
CDK6/CycD3, sequence (P30281 whole entry partner, species assumed): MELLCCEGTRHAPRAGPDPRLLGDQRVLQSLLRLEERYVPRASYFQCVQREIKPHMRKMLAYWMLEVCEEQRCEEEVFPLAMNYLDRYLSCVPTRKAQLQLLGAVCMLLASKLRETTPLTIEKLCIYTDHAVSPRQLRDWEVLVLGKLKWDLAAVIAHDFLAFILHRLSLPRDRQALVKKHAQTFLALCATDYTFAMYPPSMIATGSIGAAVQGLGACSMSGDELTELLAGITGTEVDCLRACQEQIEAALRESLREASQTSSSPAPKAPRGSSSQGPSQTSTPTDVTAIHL

[10] = molecular target: CDK4/CyclinD1 (Homo sapiens (Human), UniProt P11802); test: CDK4/cyclinD1 kinase assay (Nanosyn, microfluidic Caliper platform); assay type: biochemical; conditions: Table 3; read-out: CDK4/CycD1 IC50
CDK4/CyclinD1, sequence (P11802 whole entry, species assumed): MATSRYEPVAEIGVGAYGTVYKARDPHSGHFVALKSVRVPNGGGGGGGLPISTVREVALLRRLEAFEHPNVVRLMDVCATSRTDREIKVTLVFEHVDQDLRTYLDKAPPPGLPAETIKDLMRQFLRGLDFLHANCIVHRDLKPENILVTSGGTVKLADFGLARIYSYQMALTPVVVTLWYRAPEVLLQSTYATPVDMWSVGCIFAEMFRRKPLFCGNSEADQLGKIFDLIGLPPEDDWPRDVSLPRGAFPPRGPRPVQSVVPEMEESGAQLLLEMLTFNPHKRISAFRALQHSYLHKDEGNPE
CDK4/CyclinD1, sequence (P24385 whole entry partner, species assumed): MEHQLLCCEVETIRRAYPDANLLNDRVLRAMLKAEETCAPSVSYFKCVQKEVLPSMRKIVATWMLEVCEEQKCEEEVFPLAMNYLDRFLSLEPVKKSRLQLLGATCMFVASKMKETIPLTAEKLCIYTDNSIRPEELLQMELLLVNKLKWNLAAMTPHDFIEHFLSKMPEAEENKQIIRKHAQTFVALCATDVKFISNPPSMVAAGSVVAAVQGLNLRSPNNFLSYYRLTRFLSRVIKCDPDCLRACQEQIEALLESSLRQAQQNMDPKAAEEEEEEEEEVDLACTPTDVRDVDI
Procedure: Selected compounds disclosed herein were tested in CDK4/cyclinD1, CDK2/CycA and CDK2/cyclinE kinase assays by Nanosyn (Santa Clara, Calif.) to determine their inhibitory effect on these CDKs. The assays were performed using microfluidic kinase detection technology (Caliper Assay Platform). The compounds were tested in 12-point dose-response format in singlicate at Km for ATP. Phosphoacceptor substrate peptide concentration used was 1 μM for all assays and Staurosporine was used as the reference compound for all assays. Specifics of each assay are as described below:
CDK4/CyclinD1: Enzyme concentration: 1 nM; ATP concentration: 200 μM; Incubation time: 10 hr.

[11] = Mouse pharmacokinetics (oral gavage / intravenous); assay type: in vivo, mice; conditions: plasma, 30 mg/kg, read-out: F (oral bioavailability)
Procedure: Blood samples were taken at 0, 0.25, 0.5, 1.0, 2.0, 4.0, and 8.0 hours post dosing and the plasma concentrations were determined by HPLC.

[12] = test system: MMTV-c-neu (Rb-positive) tumors; test: MMTV-c-neu HER2-driven (Rb-positive) luminal breast cancer mouse model; assay type: in vivo, mice
Source text: A HER2-driven model (Rb-positive) of breast cancer (Muller W J, Sinn E, Pattengale P K, Wallace R, Leder P. Single-step induction of mammary adenocarcinoma in transgenic mice bearing the activated c-neu oncogene. Cell 1988; 54: 105-15), that expresses c-neu (the mouse ortholog of human HER2) driven by the MMTV promoter was used in the following example. This model was chosen because previous studies in murine (Yu Q, Geng Y, Sicinski P. Specific protection against breast cancers by cyclin D1 ablation. Nature 2001; 411: 1017-21; Landis M W, Pawlyk B S, Li T, Sicinski P, Hinds P W. Cyclin D1-dependent kinase activity in murine development and mammary tumorigenesis. Cancer Cell 2006; 9: 13-22; Reddy H K, Mettus R V, Rane S G, Grana X, Litvin J, Reddy E P. Cyclin-dependent kinase 4 expression is essential for neu-induced breast tumorigenesis. Cancer Res 2005; 65: 10174-8; Yu Q, Sicinska E, Geng Y, Ahnstrom M, Zagozdzon A, Kong Y, et al. Requirement for CDK4 kinase function in breast cancer. Cancer Cell 2006; 9: 23-32.) and human HER2-positive breast cancer (An H X, Beckmann M W, Reifenberger G, Bender H G, Niederacher D. Gene amplification and overexpression of CDK4 in sporadic breast carcinomas is associated with high tumor cell proliferation. Am J Pathol 1999; 154: 113-8; Samady L, Dennis J, Budhram-Mahadeo V, Latchman DS. Activation of CDK4 gene expression in human breast cancer cells by the Brn-3b POU family transcription factor. Cancer Biol Ther 2004; 3: 317-23; Takano Y, Takenaka H, Kato Y, Masuda M, Mikami T, Saegusa M, et al. Cyclin D1 overexpression in invasive breast cancers: correlation with cyclin-dependent kinase 4 and oestrogen receptor overexpression, and lack of correlation with mitotic activity.
MMTV-neu mice were generated and observed post-lactation, with tumors observed with a median latency of approximately 25 weeks. Mice were enrolled in therapy studies when tumors reached a standard size (50-60 mm3) that permitted easy serial assessment. […] Tumor volumes were calculated by the formula, Volume=[(width)^2×length]/2. Tumor-bearing mice were euthanized at the indicated times due to predefined morbidity, tumor ulceration, or a tumor size of more than 1.5 cm in diameter.
Tumors were serially assessed weekly using caliper measurements. Therapeutic intervention began once tumors reached 40-64 mm^3. Tumor volume was calculated using the formula […]. All three compounds were administered orally via medicated diets (100 mg/kg/d). Medicated diets were administered for 28 consecutive days and then stopped. RECIST criteria were used to assess objective response rates.

[13] = test system: HSPCs (LKS+); test: Bone marrow HSPC proliferation by EdU incorporation and flow cytometry; assay type: in vivo; conditions: 150 mg/kg oral gavage, mice
Procedure: . JCNI 2012; 104(6):476-487 (FIG. 2A). […].
Mice were then sacrificed at the indicated times (0, 12, 24, 36, or 48 hours following compound administration), and bone marrow was harvested (n=3 mice per time point), as previously described (Johnson et al. J. Clin. Invest. (2010) 120(7), 2528-2536). Four hours before the bone marrow was harvested, mice were treated with 100 μg of EdU by intraperitoneal injection (Invitrogen). Bone marrow mononuclear cells were harvested and immunophenotyped using previously described methods and percent EdU positive cells were then determined (Johnson et al. J. Clin. Invest. (2010) 120(7), 2528-2536). In brief, HSPCs were identified by expression of lineage markers (Lin−), Sca1 (S+), and c-Kit (K+).
Four hours before animals were sacrificed and the bone marrow was harvested, mice were treated with 100 μg of EdU by intraperitoneal injection. Three mice per group were sacrificed at 12 hours and the remaining three animals per group were sacrificed at 24 hours. Results are shown in FIG. 5A as the ratio of EdU positive cells for treated animals at 12 or 24 hour time points compared to control.
Further experiments were completed with Compound T examining dose response and longer periods of compound treatment. […] […].
Both compounds were administered at 150 mg/kg by oral gavage. One hour prior to harvesting bone marrow, EdU was IP injected to label cycling cells. Bone marrow was harvested at 12, 24, 36, and 48 hours after compound treatment and the percentage of EdU positive HSPC cells was determined at each time point.

| duration of cell cycle arrest of HSPC in humans [6] | IC50 [9] | IC50 [10] | bioavailability [11] | SMILES | inhibition of cellular proliferation of ZR75-1 cells (FIGS. 25-28) [1] | return to baseline levels of cell division after wash out compared to compounds T, Q, GG, or U [2] | duration of cell cycle arrest after compound is removed from the cell culture media [3] | duration of sustained reduction in HSPC EdU incorporation (FIG. 2) [4] | time post oral dosing at which HSPC return to baseline cell division (FIG. 2) [4] | PK half-life in humans [5] | duration of sustained reduction in myeloid progenitor cell EdU incorporation (FIG. 2) [7] | time post oral dosing at which myeloid progenitor cells return to baseline cell division (FIG. 2) [7] | inhibition of cellular proliferation of MCF-7 cells (FIGS. 21-24) [8] | tumor volume during a 28 day course of therapy ([12]; 100 mg/kg/d in chow) | objective response rate ([12]; 100 mg/kg/day medicated diet, 28 days, RECIST criteria) | EdU incorporation into HSPCs at 12 and 24 hours (FIG. 5A) [13] |
| --- | --- | --- | --- | --- | --- | --- | --- | --- | --- | --- | --- | --- | --- | --- | --- | --- |
| approximately one week |  |  |  | CC(=O)c1c(C)c2cnc(Nc3ccc(N4CCNCC4)cn3)nc2n(C2CCCC2)c1=O [PD0332991, 6-acetyl-8-cyclopentyl-5-methyl-2-(5-piperazin-1-yl-pyridin-2-ylammino)-8H-pyrido-[2,3-d]-pyrimidin-7-one] | significant inhibition of cellular proliferation | took significantly longer to return to baseline levels of cell division | more than forty hours | greater than 36 hours | 48 h | 27 h | greater than 36 hours | 48 h | significant inhibition of cellular proliferation |  |  |  |
|  | 5 to 6 nM | 0.7 to 1 nM | 52% | CC(C)N1CCN(c2ccc(Nc3ncc4cc5n(c4n3)C3(CCCCC3)CNC5=O)nc2)CC1 [GG] | significant inhibition of cellular proliferation |  |  |  |  |  |  |  | significant inhibition of cellular proliferation | marked decrease in tumor volume | 85% | reduction in EdU incorporation at 12 hours which was starting to return to normal at 24 hours |
